Results: article PMC12295927, “Design, Synthesis, and Testing of 1,2,3-Triazolo-Quinobenzothiazine Hybrids for Cytotoxic and Immunomodulatory Activity” (International Journal of Molecular Sciences, 2025)

Tests used:
IL6 gene = assay: RT-qPCR IL6 gene expression in BEAS-2B; format: cell-based, Human; details: 24 h; for fold induction at 100 µM: Homo sapiens, reference gene RPL41, vs untreated control, read-out: Relative level of expression, IL6 gene
Procedure: (§1) Real-time polymerase chain reaction was performed for the reference gene RPL41 (ribosomal protein L41) and the tested genes: BCL2, AIFM2, MDM2, IL6 and IL8. […] The BEAS-2B line was selected for the experiment. The expression level of selected genes was measured after 24 h of incubation with the tested substances MJ1–MJ20 at a concentration of 100 μM (Table 3).
(§2) The RT-qPCR experiment was performed for the BEAS-2B cell line. In this experiment, the IL6 and IL8 genes were studied and RPL41 was used as a reference gene (Figure 17 and Figure 18).
(§3) Gene expression studies used quantitative RT-qPCR to assess the effect of the tested quinobenzothiazines (MJ1–MJ20) on the expression of apoptosis-related genes (BCL2, AIFM2, MDM2) and pro-inflammatory cytokines (IL6, IL8) (Table 4).
(§4) BEAS-2B and HCT116 cells were seeded in 6-well plates at 2 × 10^5 cells per well and cultured in RPMI-1640 (BEAS-2B) or DMEM (HCT116) medium supplemented with 10% FBS and 1% penicillin/streptomycin at 37 °C, 5% CO2 and 95% humidity. After 24 h of incubation, the tested compounds were added at a concentration of 100 µM. After 24 h, the medium was removed from the cells, washed with PBS solution, 0.5 mL of trypsin was added per well and after 5 min it was neutralized with medium. The obtained cell suspension was centrifuged for 3 min at 2000 rpm, the supernatant was removed, and the obtained pellet was suspended in 400 µL of phenozol. Samples were frozen at −20 °C and stored until further experiment and RNA isolation.
(§5) Total RNA was isolated from cells using the A&A Biotechnology Total RNA Mini kit according to the manufacturer’s protocol. RNA quality and quantity were assessed using a NanoDrop 2000 spectrophotometer at 260/280 nm. Reverse transcription was performed using the protocol (EURx NG dART RT Kit) to obtain cDNA. After incubation, samples were placed in a freezer (−20 °C) and stored until further analysis.
(§6) The experiment was performed according to the protocol (Brilliant III Ultra Fast SYBR® Green QPCR Master Mix, Quick Reference Guide for the Bio-Rad CFX96 Real-Time PCR Detection System). RT-qPCR reaction was performed using specific primers for target genes (BCL2, AIFM2, MDM2, IL6, IL8). Gene expression was normalized to the expression of the reference gene RPL41. Reaction profiles and results were performed using Bio-Rad CFX Maestro 1.1 software from Bio-Rad. Analysis and calculations of the results obtained during RT-qPCR were performed using Microsoft Excel.
(§7) The results were analyzed using the R = 2^−ΔΔCt method, which allows for determining the relative level of gene expression (R) compared to the control. Each experiment was performed in three technical and biological replicates. RT-qPCR allowed for precise assessment of changes in the expression of genes related to the processes of apoptosis and inflammatory response under the influence of quinobenzothiazines, which allowed for identifying their potential mechanisms of action at the molecular level.

AIFM2 gene = assay: RT-qPCR AIFM2 gene expression in BEAS-2B; format: cell-based, Human; details: 24 h; for fold induction at 100 µM: Homo sapiens, reference gene RPL41, vs untreated control, read-out: Relative level of expression, AIFM2 gene; for AIFM2 expression increase: 100 μM, compared to control
Procedure: as §1
The RT-qPCR experiment was performed for the BEAS-2B cell line. In this experiment, the AIFM2 gene was studied and RPL41 was used as reference gene (Figure 16).
as §3, §4, §5, §6, §7

IL8 gene = assay: RT-qPCR IL8 gene expression in BEAS-2B; format: cell-based; details: Homo sapiens, 24 h, reference gene RPL41, vs untreated control, read-out: Relative level of expression, IL8 gene
Procedure: as §1, §2, §3, §4, §5, §6, §7

BEAS-2B = assay: Alamar Blue cytotoxicity test, BEAS-2B; format: cell-based, Human; details: Homo sapiens, 24 h, 24 h incubation, read-out: IC50 values for BEAS-2B line
Procedure: The cytotoxicity of the tested chemical compounds MJ1–MJ20 was tested using the Alamar Blue test. The experiment was conducted on cell lines BEAS-2B (Figure 7), HCT116 (Figure 8), U2OS (Figure 9), MCF7 (Figure 10), SH-SY5Y (Figure 11), NHDF (Figure 12), and A549 (Figure 13). Cells were seeded in 96-well plates and incubated with the tested compounds for 24 h. The test result is the IC50 parameter, which is a measure of cytotoxic activity expressed by the concentration of the substance that causes the death of half of the analyzed cells compared to the control.
In cytotoxicity studies, the Alamar Blue test was used, which is based on the ability of living cells to reduce the non-fluorescent dye resazurin to fluorescent resorufin, which reflects the metabolic activity of cells. BEAS-2B, NHDF, HCT116, MCF7, A549, SH-SY5Y and U2OS cell lines were cultured under standard conditions, in DMEM medium supplemented with 10% FBS and 1% penicillin/streptomycin, at 37 °C, 5% CO2 and 95% humidity. Cells were seeded in 96-well plates at 1 × 10^4 cells per well and incubated for 24 h. Then, the tested compounds (MJ1–MJ20) were added at different concentrations (from 6.25 µM to 100 µM). The control contained cells untreated with the tested compounds. After 24 h of incubation, 10 µL of Alamar Blue solution was added to each well and incubated for another 2–4 h under the same conditions. The signal was measured spectrophotometrically at wavelengths of 570 nm (for resorufin) and 600 nm (for resazurin) or optionally fluorimetrically, using an excitation maximum of 570 nm and an emission maximum of 585 nm. The results were presented as percentage of cell survival relative to the control, calculating the ratio of absorbance or fluorescence of the sample to the control value. The Alamar Blue assay, due to its sensitivity and non-toxicity, allows for an accurate assessment of metabolic activity and cell survival in response to the tested quinobenzothiazines.

BCL2 gene = assay: RT-qPCR BCL2 gene expression in BEAS-2B; format: cell-based, Human; details: 24 h; for fold induction at 100 µM: Homo sapiens, reference gene RPL41, vs untreated control, read-out: Relative level of expression, BCL2 gene
Procedure: as §1
The RT-qPCR experiment was performed for the BEAS-2B cell line. In this experiment, the BCL2 gene was studied, and RPL41 was used as the reference gene (Figure 14).
as §3, §4, §5, §6, §7

Structure (SMILES) | fold induction at 100 µM (IL6 gene) | fold induction at 100 µM (AIFM2 gene) | fold induction at 100 µM (IL8 gene) | IC50 (BEAS-2B) | fold induction at 100 µM (BCL2 gene) | AIFM2 expression increase (AIFM2 gene) | IL6 expression increase (IL6 gene; 100 μM, compared to control) | BCL2 expression increase (BCL2 gene; 100 μM, compared to control)
Clc1ccc2c(c1)Sc1cc3ccccc3nc1N2Cc1cn(CSc2ccccc2)nn1 [MJ15, 9-Chloro-6-((1-((phenylthio)methyl)-1H-1,2,3-triazol-4-yl)methyl)-quino[3,2-b]benzo[1,4]thiazine] | 13 | 2.6 | 5 | 87.2 µM | 60.3 |  |  | 
Fc1ccc(Cn2cc(CN3c4ccccc4Sc4cc5ccccc5nc43)nn2)cc1 [MJ2, 6-((1-(4-Fluorobenzyl)-1H-1,2,3-triazol-4-yl)methyl)-quino[3,2-b]benzo[1,4]thiazine] | 1.7 | 11.4 | 0.4 | 76.2 µM | 6.5 | 11.4 fold |  | 
Fc1ccc2c(c1)Sc1cc3ccccc3nc1N2Cc1cn(Cc2ccc(Cl)cc2)nn1 [MJ8, 9-Fluoro-6-[(1-(4-chlorobenzyl)-1H-1,2,3-triazol-4-yl)methyl]-quino[3,2-b]benzo-[1,4]thiazine] | 9.9 | 4.2 | 4 | 71.9 µM | 10.1 |  |  | 
CSc1ccc2c(c1)Sc1cc3ccccc3nc1N2Cc1cn(Cc2ccc(C#N)cc2)nn1 [MJ19, 4-((4-((9-Methylthioquino[3,2-b]benzo[1,4]thiazin-6-yl)methyl)-1H-1,2,3-triazol-1-yl)methyl)benzonitrile] | 57.2 | 14.9 | 12.8 | 72.7 µM | 208 | 14.9 fold | 57.2 fold | 208 fold
